Assay results from US6685851B2, “Derivatives of cycloaliphatic diamines as cosolvents for aqueous hydrophobic amines” (PRC-DeSoto International, Inc., priority 1999, dated 2004).

What was measured:
Format in all cases: physicochemical
[1] = Water added dropwise to 1:1 hydrophobic amine/cosolvent amine blend until turbidity (visible light scattering)
Protocol: To illustrate the efficiency of the present invention to solubilize various hydrophobic amines, one part by weight of various commercially available hydrophobic amines is blended with one part by weight of a cosolvent amine. Water is then added dropwise with vigorous stirring to the blend of one part hydrophobic amine and one part cosolvent amine. The parts of water added is monitored by the appearance of turbidity as measured by visible light scattering. […] Cosolvents amines A-D are those of the present invention. In order to assess the relative efficiency of the cosolvent amines of the present invention, A-D; conventional cosolvent amines, E-I and the omission of a cosolvent, J are also evaluated.

[2] = Aqueous solution of polyamidoamine with cosolvent amine, appearance and stability (Example 1); settings: 10 parts polyamidoamine, 10 parts cosolvent, 150 parts room temperature water
Protocol: 10 parts of a polyamidoamine (Air Products 506 amidoamine) is added to a reactor equipped with a mechanical agitator.

[3] = target: T1, bacteriorhodopsin (Halobacterium salinarum, UniProt P02945); assay: Dispersion of bacteriorhodopsin in aqueous cosolvent by small angle x-ray scattering (Example 3); settings: 0.1 gram bacteriorhodopsin, 0.1 grams cosolvent, 1.1 grams water
T1 construct: A lyophilized powder of bacteriorhodopsin is obtained according to D. Oesterhett Mtds; Enzy 31, 1974, 667; made in house; host or cells: Isolated from the natural producer (Halobacterium) by the cited literature method
T1 sequence (P02945 14-262): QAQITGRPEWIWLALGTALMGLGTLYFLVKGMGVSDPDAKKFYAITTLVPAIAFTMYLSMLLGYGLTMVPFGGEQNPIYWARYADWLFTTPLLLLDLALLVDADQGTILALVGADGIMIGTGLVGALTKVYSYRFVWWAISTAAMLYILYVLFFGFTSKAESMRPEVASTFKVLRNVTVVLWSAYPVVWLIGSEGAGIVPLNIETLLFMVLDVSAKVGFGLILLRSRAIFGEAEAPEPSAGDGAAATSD
Source text: A lyophilized powder of bacteriorhodopsin is obtained according to D. Oesterhett Mtds. Enzy 31, 1974, 667. 0.1 gram of bacteriorhodopsin is mixed with 0.1 grams of 1,2 diaminocycylohexane cosolvent and 1.1 grams of water added.

[4] = 1 part Air Products 506 Amidoamine + 1 part cosolvent amine by weight
[5] = 1 part Air Products 2460 Polyamide + 1 part cosolvent amine by weight
[6] = 1 part Cardolite NC-540 Phenalkamine + 1 part cosolvent amine by weight

SMILES	Parts of water added to 2 parts of amine blend yielding a clear solution [1, 4] [parts]	Parts of water added to 2 parts of amine blend yielding a clear solution [1, 5] [parts]	Parts of water added to 2 parts of amine blend yielding a clear solution [1, 6]	Appearance of aqueous solution [2]	Stability of the solution [2]	Dispersion of bacteriorhodopsin in the aqueous cosolvent [3]
NC1CCCCC1N (stereo not drawn) [Cosolvent C, 1,2-Diamino cyclohexane]						uniformly dispersed
CC(CN)CCCN (stereo not drawn) [Cosolvent E]	<6	3.5	<3.9 parts			
NCCOCCOCCN [Cosolvent G]	<2	<2	<.5 parts			
CCCCC(N)CN (stereo not drawn) [Cosolvent H, 1,2-Hexanediamine, reference compound]	<7	<3.6	<3 parts			
NCc1cccc(CN)c1 [Cosolvent I, m-Xylylenediamine, reference compound]	<5	<3.75	<.5 parts			

Further lines, with some results ahead:

Parts of water added to 2 parts of amine blend yielding a clear solution [1, 4] [parts]	Parts of water added to 2 parts of amine blend yielding a clear solution [1, 5] [parts]	Parts of water added to 2 parts of amine blend yielding a clear solution [1, 6]	Appearance of aqueous solution [2]	Stability of the solution [2]	SMILES	Dispersion of bacteriorhodopsin in the aqueous cosolvent [3]
>28	>22	>30 parts			CC1(C)CC(N)CC(C)(CN)C1 (stereo not drawn) [Cosolvent A, Isophorone diamine]	
>19	>10	>18 parts	uniform, clear solution is formed	stable for greater than three months	NCC1CCCC(CN)C1 (stereo not drawn) [Cosolvent B, 1,3-Bis (aminomethyl) cyclohexane]	
<5	<5	<3.5 parts			NC1CCCC1N (stereo not drawn) [Cosolvent D, 1,2 Diaminocyclopentane]	
<4	<2	<.5 parts			NCCCN1CCN(CCCN)CC1 [Cosolvent F, 1,4-Bis (3-aminopropyl) piperazine, reference compound]	
